This assay addresses T1, EGFR (Homo sapiens, UniProt P00533).
T1 construct: The intracellular portion of EGFR started at nucleotide 2189 (corresponding to amino acid 667) and ended at the termination codon; made in house; host or cells: Sf9 insect cells (baculovirus)
In words: EGFR Kinase Assay. The class given is biochemical. The settings on record: GST-EGFR intracellular portion, 5 μM ATP. The text has this: The EGFR kinase used was a fusion of Glutathione-S-Transferase (GST) and a PCR amplified intracellular portion of EGFR (NM_005228). The intracellular portion of EGFR started at nucleotide 2189 (corresponding to amino acid 667) and ended at the termination codon. The portion was PCR amplified with primers that added the lambda attB sequences to each end, recombined into an entry vector, then into a GST destination vector (as described in Gateway Technologies Manual by Invitrogen Corporation, Carlsbad, Calif.).
The destination vector was recombined in the DH10BAC strain of bacteria to produce a bacmid. The bacmid was transfected into Sf 9 cells and the supernatant containing the baculovirus was collected. The GSTEGFR protein was purified using large cultures of Sf 9 cells infected with stock virus. After an appropriate period of time, the cells were collected and lysed. The GSTEGFR was then purified from the lysate on Glutathione-Sepharose columns (as described by Amersham Biosciences, Buckinghamshire, United Kingdom).
The EGFR substrate was prepared by biotinylating polyGluTyr (128 mg) (Sigma, St. Louis, Mo.) in a 1×PBS buffer incubated together with a 12-fold molar excess of Sulfo-NHS-LC-Biotin on ice for at least 2 hrs. The free biotin was separated from the biotinylated polyGluTyr on a gel filtration column.
A mixture of a 10× kinase buffer (500 mM Tris at pH 8.0, 100 mM Magnesium Chloride and 1 mM Sodium Vanadate), DTT (1 mM final from 500 mM stock), ATP (5 μM final from 10 mM stock), biotinylated polyGluTyr (10 μg/μL stock), γ-^33P ATP (10 μCi/μL stock) and water was added to each well (90 μL/well) of a Streptavidin Flashplate (Perkin Elmer, Wellesley, M A).
Test compound in 100% DMSO (2 μL) was added to the appropriate wells. Diluted GSTEGFR (1:300 dilution in 50 mM Tris at pH 8.0 and 0.1% bovine serum albumin) (10 μL) was added to the wells to initiate the reactions.
The plates were incubated at 30° C. for 1 hr with shaking. The reacted contents were removed and the plates were sequentially washed three times with a 1×PBS stop buffer (300 μL without Magnesium and Calcium) and 100 mM EDTA. After the final wash, the same stop buffer (200 μL) was added to the wells. The plates were then sealed and read on the TopCount scintillation counter.
Test compounds were assayed in triplicate at 16 concentrations at half-log dilutions starting at 200 uM. A maximum and minimum signal for the assay was determined on each plate. The percent inhibition of a test compound was calculated according to the formula
For a series of test concentrations, the IC50 was derived by graphing percent inhibition against the log of the concentrations tested for a given compound. For those compounds without an IC50, the percent inhibition results are shown at a test concentration of 2 μM.
T1 sequence (P00533 669-1210 limits assumed): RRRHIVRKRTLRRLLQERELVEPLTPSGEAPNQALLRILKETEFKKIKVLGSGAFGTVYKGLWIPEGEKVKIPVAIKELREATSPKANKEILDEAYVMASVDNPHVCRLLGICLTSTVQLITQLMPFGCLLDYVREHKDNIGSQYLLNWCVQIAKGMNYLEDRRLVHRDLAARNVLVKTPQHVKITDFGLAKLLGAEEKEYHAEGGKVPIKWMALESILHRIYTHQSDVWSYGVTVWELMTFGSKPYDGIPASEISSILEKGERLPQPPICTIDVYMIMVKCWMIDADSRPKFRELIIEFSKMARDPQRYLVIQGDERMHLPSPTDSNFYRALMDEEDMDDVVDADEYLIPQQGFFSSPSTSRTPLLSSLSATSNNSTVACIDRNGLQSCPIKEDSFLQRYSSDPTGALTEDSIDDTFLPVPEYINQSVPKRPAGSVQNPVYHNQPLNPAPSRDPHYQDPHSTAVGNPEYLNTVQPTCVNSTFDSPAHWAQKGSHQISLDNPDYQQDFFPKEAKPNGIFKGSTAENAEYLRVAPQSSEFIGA
Compound `COc1ccc(NC(=O)c2sc3ncnc(Nc4ccc(F)c(Cl)c4)c3c2N)cc1` [Cpd 1, 5-amino-4-(3-chloro-4-fluoro-phenylamino)-thieno[2,3-d]pyrimidine-6-carboxylic acid (4-methoxy-phenyl)-amide] came in with an IC50 of 0.239 nM.

The compound `Nc1c(C(=O)Nc2ccc(CN3CCOCC3)cc2)sc2ncnc(Nc3ccc(F)c(Cl)c3)c12` [Cpd 2, 5-amino-4-(3-chloro-4-fluoro-phenylamino)-thieno[2,3-d]pyrimidine-6-carboxylic acid (4-morpholin-4-ylmethyl-phenyl)-amide] returned an IC50 of 0.086 nM. Compared with the last compound, the IC50 is about 2.8-fold lower.

Compound `COc1ccc(NC(=O)c2sc3ncnc(Nc4ccc(F)c(Cl)c4)c3c2N)cc1OC` [Cpd 3, 5-amino-4-(3-chloro-4-fluoro-phenylamino)-thieno[2,3-d]pyrimidine-6-carboxylic acid (3,4-dimethoxy-phenyl)-amide] yielded a half-maximal inhibitory concentration (IC50) of 0.109 nM.

In turn, `Nc1c(C(=O)NCCN2CCOCC2)sc2ncnc(Nc3ccc(F)c(Cl)c3)c12` [Cpd 4, 5-amino-4-(3-chloro-4-fluoro-phenylamino)-thieno[2,3-d]pyrimidine-6-carboxylic acid (2-morpholin-4-yl-ethyl)-amide] registered an IC50 of 0.606 nM. This IC50 is about 5.6-fold higher than that of the compound before.

Take `CN(C)CCCNS(=O)(=O)c1ccc(NC(=O)c2sc3ncnc(Nc4ccc(F)c(Cl)c4)c3c2N)cc1` [Cpd 5, 5-amino-4-(3-chloro-4-fluoro-phenylamino)-thieno[2,3-d]pyrimidine-6-carboxylic acid [4-(3-dimethylamino-propylsulfamoyl)-phenyl]-amide]: inhibition was half-maximal at 0.043 nM (IC50).

On to `Nc1c(C(=O)Nc2ccc(Oc3ccccc3)cc2)sc2ncnc(Nc3ccc(F)c(Cl)c3)c12` [Cpd 6, 5-amino-4-(3-chloro-4-fluoro-phenylamino)-thieno[2,3-d]pyrimidine-6-carboxylic acid (4-phenoxy-phenyl)-amide], for which inhibition was half-maximal at 0.741 nM (IC50).

The compound `Nc1c(C(=O)Nc2ccc(OC(F)(F)F)cc2)sc2ncnc(Nc3ccc(F)c(Cl)c3)c12` [Cpd 7, 5-amino-4-(3-chloro-4-fluoro-phenylamino)-thieno[2,3-d]pyrimidine-6-carboxylic acid (4-trifluoromethoxy-phenyl)-amide] registered an IC50 of 0.598 nM.

Compound `CC(C)Oc1ccc(NC(=O)c2sc3ncnc(Nc4ccc(F)c(Cl)c4)c3c2N)cc1` [Cpd 8, 5-amino-4-(3-chloro-4-fluoro-phenylamino)-thieno[2,3-d]pyrimidine-6-carboxylic acid (4-isopropoxy-phenyl)-amide] returned an IC50 of 0.14 nM. Compared with the last compound, the IC50 is about 4.3-fold lower.

Consider `COc1ccc(NC(=O)c2sc3ncnc(Nc4ccc(F)c(Cl)c4)c3c2N)cn1` [Cpd 9, 5-amino-4-(3-chloro-4-fluoro-phenylamino)-thieno[2,3-d]pyrimidine-6-carboxylic acid (6-methoxy-pyridin-3-yl)-amide], for which half-maximal inhibition (IC50) required 0.147 nM.

`Nc1c(C(=O)Nc2ccc(N3CCOCC3)cc2)sc2ncnc(Nc3ccc(F)c(Cl)c3)c12` [Cpd 10, 5-amino-4-(3-chloro-4-fluoro-phenylamino)-thieno[2,3-d]pyrimidine-6-carboxylic acid (4-morpholin-4-yl-phenyl)-amide] came in with an IC50 of 0.196 nM.

Regarding `COc1ccc(CNC(=O)c2sc3ncnc(Nc4ccc(F)c(Cl)c4)c3c2N)cc1OC` [Cpd 11, 5-amino-4-(3-chloro-4-fluoro-phenylamino)-thieno[2,3-d]pyrimidine-6-carboxylic acid 3,4-dimethoxy-benzylamide], the IC50 is 0.177 nM. The IC50 values of the last two compounds are within 1.5-fold of each other.

Compound `COc1ccc(CCNC(=O)c2sc3ncnc(Nc4ccc(F)c(Cl)c4)c3c2N)cc1OC` [Cpd 12, 5-amino-4-(3-chloro-4-fluoro-phenylamino)-thieno[2,3-d]pyrimidine-6-carboxylic acid [2-(3,4-dimethoxy-phenyl)-ethyl]-amide] yielded an IC50 of 0.22 nM.

For the compound `Nc1c(C(=O)Nc2ccc(CN3CCCCC3)cc2)sc2ncnc(Nc3ccc(F)c(Cl)c3)c12` [Cpd 13, 5-amino-4-(3-chloro-4-fluoro-phenylamino)-thieno[2,3-d]pyrimidine-6-carboxylic acid (4-piperidin-1-ylmethyl-phenyl)-amide], it took 0.053 nM to reach half-maximal inhibition (IC50). Against the preceding compound, the IC50 is about 4.2-fold lower.

`CN(C)Cc1ccc(NC(=O)c2sc3ncnc(Nc4ccc(F)c(Cl)c4)c3c2N)cc1` [Cpd 14, 5-amino-4-(3-chloro-4-fluoro-phenylamino)-thieno[2,3-d]pyrimidine-6-carboxylic acid (4-dimethylaminomethyl-phenyl)-amide] yielded a half-inhibitory concentration (IC50) of 0.034 nM. Compared with the last compound, the IC50 is about 1.6-fold lower.

`CN(CCc1ccc(NC(=O)c2sc3ncnc(Nc4ccc(F)c(Cl)c4)c3c2N)cc1)C1CCOCC1` [Cpd 15, 5-amino-4-(3-chloro-4-fluoro-phenylamino)-thieno[2,3-d]pyrimidine-6-carboxylic acid (4-{2-[methyl-(tetrahydro-pyran-4-yl)-amino]-ethyl}-phenyl)-amide] gave a concentration for half-maximal inhibition (IC50) of 0.064 nM.

For `CN(Cc1ccc(NC(=O)c2sc3ncnc(Nc4ccc(F)c(Cl)c4)c3c2N)cc1)C[C@H]1CCCO1` [Cpd 16, 5-amino-4-(3-chloro-4-fluoro-phenylamino)-thieno[2,3-d]pyrimidine-6-carboxylic acid [4-({methyl-[(2R)-tetrahydro-furan-2-ylmethyl]-amino}-methyl)-phenyl]-amide], it took 0.035 nM to reach half-maximal inhibition (IC50).

Take `CN(Cc1ccc(NC(=O)c2sc3ncnc(Nc4ccc(F)c(Cl)c4)c3c2N)cc1)C[C@@H]1CCCO1` [Cpd 17, 5-amino-4-(3-chloro-4-fluoro-phenylamino)-thieno[2,3-d]pyrimidine-6-carboxylic acid [4-({methyl-[(2S)-tetrahydro-furan-2-ylmethyl]-amino}-methyl)-phenyl]-amide]: the IC50 was determined as 0.062 nM.

In the case of `CN1CCN(Cc2ccc(NC(=O)c3sc4ncnc(Nc5ccc(F)c(Cl)c5)c4c3N)cc2)CC1` [Cpd 18, 5-amino-4-(3-chloro-4-fluoro-phenylamino)-thieno[2,3-d]pyrimidine-6-carboxylic acid [4-(4-methyl-piperazin-1-ylmethyl)-phenyl]-amide], the concentration for half-maximal inhibition (IC50) is 0.067 nM. The IC50 values of the last two compounds are within 1.5-fold of each other.

The values above are taken from patent US20080108611A1, “SUBSTITUTED THIENOPYRIMIDINE KINASE INHIBITORS” (priority 2006, published 2008).
